Reference: patent EP4167978B1, “USE OF JUNIPER (JUNIPERUS COMMUNIS) BERRIES EXTRACT, DEOXYPODOP[…] […], AS POSITIVE ALLOSTERIC MODULATORS OF CANNABINOID TYPE 1 RECEPTOR FOR TREATING NEUROPATHIC PAIN AND IN[…]” (Vivacell Biotechnology Espana S.L., priority 2020, dated 2022)

How the values were obtained:
[1] = target: T1, human CB1R (Homo sapiens, UniProt P21554); experiment: CB1R agonistic activity, CRE-luciferase reporter without CP-55,940; assay type: cell-based; settings: HEK293T-CB1-CRE-luc cells, compound alone
T1 construct: expressed in transfected cells; host or cells: HEK293T (HEK293T-CB1-CRE-Luc)
Description: The determination of CB1R activity was carried out using the HEK293T-CB1-CRE-Luc cells stably transfected with the human CB1R cDNA, and a construction of CRE-Luc that contains as promoter six consensus cAMP responsive elements (CRE) linked to firefly luciferase reporter gene. The increase in cAMP levels activates the CRE-Luc system, inducing the expression of the luciferase reporter gene. Briefly, HEK293T-CB1-CRE-Luc cells were cultured in supplemented DMEM (Sigma) medium containing 10% FBS (Gibco) and 1% antibiotics penicillin/streptomycin (Sigma) (DMEM complete medium) and maintained at 37° C in a humidified atmosphere of 5% CO2. […] Luciferase activity was measured using a TriStar2 Berthold/LB942 multimode reader (Berthold Technologies) following the instructions of the luciferase assay kit (Promega, Madison, Wl, USA). The RLUs (relative light units) were calculated and: (i) For allosteric activity, results were expressed as percentage of CB1R activity normalized to 100% stimulation induced by 2.5 µM CP-55,940, according to the following formula: Percentage of CB1R activity = 100 * (T - B) / (C - B); where T are the RLUs of the cells treated with the fractions and 2.5 µM CP-55,940; C are the RLUs of the cells treated with CP-55,940 alone, and B are the RLUs of the cells without stimulus. […]

[2] = target: T1, human CB1R; experiment: CB1R positive allosteric modulation (PAM) activity, CRE-luciferase reporter in the presence of the orthosteric agonist CP-55,940; assay type: cell-based; settings: for percentage of CB1R activity normalized to 100% stimulation induced by 2.5 µM CP-55,940 alone: HEK293T-CB1-CRE-luc cells, tested at 1, 5, 10 and 25 µg/mL in the presence of 2.5 µM CP-55,940, CB1R activity ≥ 150% is considered CB1R PAM activity; for CB1R PAM activity: result in words, HEK293T-CB1-CRE-luc cells with 2.5 µM CP-55,940
Description: The determination of CB1R activity was carried out using the HEK293T-CB1-CRE-Luc cells stably transfected with the human CB1R cDNA, and a construction of CRE-Luc that contains as promoter six consensus cAMP responsive elements (CRE) linked to firefly luciferase reporter gene. The increase in cAMP levels activates the CRE-Luc system, inducing the expression of the luciferase reporter gene. Briefly, HEK293T-CB1-CRE-Luc cells were cultured in supplemented DMEM (Sigma) medium containing 10% FBS (Gibco) and 1% antibiotics penicillin/streptomycin (Sigma) (DMEM complete medium) and maintained at 37° C in a humidified atmosphere of 5% CO2. The day before the assay 10^4 cells per well were seeded in 96 well-plates and incubated overnight. For determining CB1R positive allosteric modulation (PAM) activity, HEK293T-CB1-CRE-Luc cells were treated with increasing concentrations of the fractions for 30 min and then treated with the CB1R orthosteric agonist CP-55,940 at 2.5 µM. For CB1R agonistic activity, HEK293T-CB1-CRE-Luc cells were treated with increasing concentrations of the fractions. CP-55,940 alone, a CB1R orthosteric agonist, was used at 2.5 µM as positive control of cAMP signaling pathway activated by a CB1R-dependent orthosteric mechanism; and cells without stimulus were used as negative control. In both assays, after 6 h of stimulation, cells were washed twice with PBS 1X and lysed in 100 µL lysis buffer containing 25 mM Tris-phosphate (pH 7.8), 8 mM MgCl2, 1 mM DTT, 1% Triton X-100, and 7% glycerol during 15 min at room temperature in a horizontal shaker. Luciferase activity was measured using a TriStar2 Berthold/LB942 multimode reader (Berthold Technologies) following the instructions of the luciferase assay kit (Promega, Madison, Wl, USA). The RLUs (relative light units) were calculated and: (i) For allosteric activity, results were expressed as percentage of CB1R activity normalized to 100% stimulation induced by 2.5 µM CP-55,940, according to the following formula: Percentage of CB1R activity = 100 * (T - B) / (C - B); where T are the RLUs of the cells treated with the fractions and 2.5 µM CP-55,940; C are the RLUs of the cells treated with CP-55,940 alone, and B are the RLUs of the cells without stimulus. CB1R activity ≥ 150% was considered CB1R PAM activity (ii) For the CB1R agonistic activity, results were expressed as a fold change over non-stimulated cells according to the following formula: Fold change of CB1R activity = T / B; where T are RLUs of the cells treated with the fractions and B are the RLUs of the cells without stimulus. CB1R activity ≥ 2.5-fold increase is considered CB1R agonistic activity.

T1 sequence (P21554 whole entry): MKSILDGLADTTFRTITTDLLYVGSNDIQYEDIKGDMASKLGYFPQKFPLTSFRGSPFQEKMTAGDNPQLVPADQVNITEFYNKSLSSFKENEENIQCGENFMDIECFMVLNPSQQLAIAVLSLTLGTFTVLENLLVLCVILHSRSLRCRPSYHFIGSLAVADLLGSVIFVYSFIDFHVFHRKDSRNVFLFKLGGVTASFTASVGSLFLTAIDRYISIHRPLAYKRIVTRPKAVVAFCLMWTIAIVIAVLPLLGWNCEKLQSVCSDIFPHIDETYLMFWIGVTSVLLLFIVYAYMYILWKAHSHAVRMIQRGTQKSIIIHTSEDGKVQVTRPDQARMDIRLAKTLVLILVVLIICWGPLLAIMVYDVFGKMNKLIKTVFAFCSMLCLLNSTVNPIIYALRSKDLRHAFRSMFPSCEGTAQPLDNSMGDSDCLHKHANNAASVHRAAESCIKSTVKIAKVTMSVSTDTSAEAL

Structure (SMILES) | CB1R agonistic activity on cAMP signaling pathway ([1]; at high concentrations, ≥ 2.5-fold increase over non-stimulated cells is considered agonistic) | CB1R agonistic activity on cAMP signaling pathway ([1]; at the lower tested concentration) | percentage of CB1R activity normalized to 100% stimulation induced by 2.5 µM CP-55,940 alone [2] | CB1R PAM activity [2] | CB1R PAM activity ([2]; listed as Agathadiol)
C=C1CC[C@H]2[C@@](C)(CO)CCC[C@]2(C)[C@H]1CC/C(C)=C/CO [agathadiol, (E)-5-[(1S,4aR,5S,8aR)-5-(hydroxymethyl)-5,8a-dimethyl-2-methylidene-3,4,4a,6,7,8-hexahydro-1H-naphthalen-1-yl]-3-methylpent-2-en-1-ol] | medium CB1R agonistic activity | residual | over 1000% | clear CB1R PAM activities at a range of concentrations | increasingly stronger bioactive effect as PAM of CB1R with increasing concentrations
COc1cc([C@H]2c3cc4c(cc3C[C@@H]3COC(=O)[C@H]32)OCO4)cc(OC)c1OC [deoxypodophyllotoxin, (5S,5aS,8aS)-5-(3,4,5-trimethoxyphenyl)-5a,8,8a,9-tetrahydro-5H-[2]benzofuro[5,6-f][1,3]benzodioxol-6-one] | – | – | over 1000% | clear CB1R PAM activities at a range of concentrations | –
